Results: PMC5903342 (Oxidative Medicine and Cellular Longevity, 2018)

How the values were obtained:
[1] = system: S. enterica serovar typhimurium-tested strains; experiment: Cytotoxic effect in bacterial strains (CFU survival); assay type: cell-based, Salmonella enterica serovar typhimurium; details: presence and absence of exogenous metabolic activation (data not shown)
Procedure: To determine the cytotoxic effect, after 60 min incubation, the assay mixtures were diluted in 0.9% NaCl (w/v) to obtain a suspension containing 2 × 10^2 cells/mL. A suitable aliquot (100 μL) of this suspension was plated on nutrient agar (0.8% bacto nutrient broth (Difco), 0.5% NaCl, and 1.5% agar). The plates were then incubated at 37°C for 24 h, and the colony-forming units (CFU) were counted to obtain the percentage of survival. All the experiments were done in triplicate and were repeated at least twice.

[2] = system: Salmonella enterica serovar typhimurium TA100; experiment: Antimutagenicity assay (Salmonella/microsome), strain TA100 (co-, pre- and posttreatment); assay type: cell-based
[3] = system: Salmonella enterica serovar typhimurium TA1535; experiment: Antimutagenicity assay (Salmonella/microsome), strain TA1535; assay type: cell-based; details: TA1535, cotreatment
Excerpt: Salmonella enterica serovar typhimurium (S. typhimurium) strains TA100, TA1535, TA104, and TA102 from the authors' laboratory stock were used as described by Maron and Ames in the antimutagenicity assay.
We carried out the coexposure protocol of the antimutagenicity assay to investigate the potential of the compound to protect against alkylation-mediated genetic mutation in S. typhimurium TA100, TA102, TA104, and TA1535 strains according to Ajith and Soja. The test proceeded both in the absence and presence of a metabolic activation system (4% S9 mix, Aroclor preinduced, from MOLTOX Inc., USA). DMSO 1% served as the negative control. […] The mixtures were incubated in a shaker at 37°C (preincubation) under light protection. After a total of 60 min of cotreatment, the mixtures were added to and mixed with 2 mL top agar containing 0.05 mmol/L L-histidine and D-biotin for the S. typhimurium strains. Each of these was then spread on a minimal glucose agar (1.5% agar, Vogel-Bonner medium E, containing 2% glucose) plate. After the top agar solidified, the plates were incubated at 37°C for 60–72 h. Each tester strain was assayed in triplicate and repeated at least twice, and the number of revertant colonies was counted for each tester strain and treatment group. The counts of revertant colonies were obtained to build a dose-response curve and calculate the percentage of reduction.

[4] = TA100, cotreatment, +S9, CPA (150 μM), atorvastatin 20 μM
[5] = TA100, cotreatment, +S9, CPA (150 μM), atorvastatin 100 μM
[6] = TA100, cotreatment, +S9, CPA (150 μM), atorvastatin 200 μM
[7] = TA100, cotreatment, +S9, CPA (150 μM), atorvastatin 1000 μM
[8] = TA100, cotreatment, −S9, MMS (100 μM), atorvastatin 20 μM
[9] = TA100, cotreatment, −S9, MMS (100 μM), atorvastatin 100 μM
[10] = TA100, cotreatment, −S9, MMS (100 μM), atorvastatin 200 μM
[11] = TA100, cotreatment, −S9, MMS (100 μM), atorvastatin 1000 μM
[12] = TA100, posttreatment, +S9, CPA (150 μM), atorvastatin 20 μM
[13] = TA100, posttreatment, +S9, CPA (150 μM), atorvastatin 200 μM
[14] = TA100, posttreatment, +S9, CPA (150 μM), atorvastatin 1000 μM
[15] = TA100, posttreatment, −S9, MMS (100 μM), atorvastatin 20 μM
[16] = TA100, posttreatment, −S9, MMS (100 μM), atorvastatin 100 μM
[17] = TA100, posttreatment, −S9, MMS (100 μM), atorvastatin 200 μM
[18] = TA100, posttreatment, −S9, MMS (100 μM), atorvastatin 1000 μM
[19] = TA100, pretreatment, +S9, CPA (150 μM), atorvastatin 20 μM
[20] = TA100, pretreatment, +S9, CPA (150 μM), atorvastatin 100 μM
[21] = TA100, pretreatment, +S9, CPA (150 μM), atorvastatin 200 μM
[22] = TA100, pretreatment, +S9, CPA (150 μM), atorvastatin 1000 μM
[23] = TA100, pretreatment, −S9, MMS (100 μM), atorvastatin 20 μM
[24] = TA100, pretreatment, −S9, MMS (100 μM), atorvastatin 100 μM
[25] = TA100, pretreatment, −S9, MMS (100 μM), atorvastatin 200 μM
[26] = TA100, pretreatment, −S9, MMS (100 μM), atorvastatin 1000 μM
[27] = +S9, CPA (150 μM), atorvastatin 20 μM
[28] = +S9, CPA (150 μM), atorvastatin 100 μM
[29] = +S9, CPA (150 μM), atorvastatin 200 μM
[30] = +S9, CPA (150 μM), atorvastatin 1000 μM
[31] = −S9, MMS (100 μM), atorvastatin 20 μM
[32] = −S9, MMS (100 μM), atorvastatin 100 μM
[33] = −S9, MMS (100 μM), atorvastatin 200 μM
[34] = −S9, MMS (100 μM), atorvastatin 1000 μM

CC(C)c1c(C(=O)Nc2ccccc2)c(-c2ccccc2)c(-c2ccc(F)cc2)n1CC[C@@H](O)C[C@@H](O)CC(=O)O [AVA, atorvastatin]
Cytotoxic effect to bacterial strains [1]: no cytotoxic effect
% reduction [2, 4]: 2.65%
His+ (revertant colonies) [2, 4]: 235 ± 22
% reduction [2, 5]: 6.19%
His+ (revertant colonies) [2, 5]: 230 ± 31
% reduction [2, 6]: 11.50%
His+ (revertant colonies) [2, 6]: 224 ± 15
% reduction [2, 7]: 17.70%
His+ (revertant colonies) [2, 7]: 216 ± 25
% reduction [2, 8]: 7.14%
His+ (revertant colonies) [2, 8]: 204 ± 18
% reduction [2, 9]: 12.5%
His+ (revertant colonies) [2, 9]: 198 ± 22
% reduction [2, 10]: 19.64%
His+ (revertant colonies) [2, 10]: 190 ± 13
% reduction [2, 11]: 23.21%
His+ (revertant colonies) [2, 11]: 186 ± 14
Reduction of DNA injuries caused by MMS or CPA ([2]; TA100, posttreatment): not able to reduce
% reduction [2, 12]: 12.04%
His+ (revertant colonies) [2, 12]: 257 ± 5
% reduction ([2]; TA100, posttreatment, +S9, CPA (150 μM), atorvastatin 100 μM): 17.44%
% reduction [2, 13]: 18.49%
His+ (revertant colonies) [2, 13]: 216 ± 8
% reduction [2, 14]: 21.48%
His+ (revertant colonies) [2, 14]: 207 ± 23
% reduction [2, 15]: 5.69%
His+ (revertant colonies) [2, 15]: 257 ± 26
% reduction [2, 16]: 11.86%
His+ (revertant colonies) [2, 16]: 248 ± 23
% reduction [2, 17]: 20.10%
His+ (revertant colonies) [2, 17]: 237 ± 22
% reduction [2, 18]: 23.00%
His+ (revertant colonies) [2, 18]: 233 ± 26
% reduction [2, 19]: 79.4^∗ %
His+ (revertant colonies) [2, 19]: 130 ± 30
% reduction [2, 20]: 81.6^∗ %
His+ (revertant colonies) [2, 20]: 127 ± 19
% reduction [2, 21]: 92.59^∗ %
His+ (revertant colonies) [2, 21]: 111 ± 9
% reduction [2, 22]: 97.92^∗ %
His+ (revertant colonies) [2, 22]: 103 ± 2
Antimutagenic activity ([2]; TA100, pretreatment, all concentrations, presence and absence of metabolic conditions): exerted antimutagenic activity
% reduction [2, 23]: 45.97^∗ %
His+ (revertant colonies) [2, 23]: 171 ± 14
% reduction [2, 24]: 88.57^∗ %
His+ (revertant colonies) [2, 24]: 117 ± 2
% reduction [2, 25]: 91.43^∗ %
His+ (revertant colonies) [2, 25]: 113 ± 6
% reduction [2, 26]: 98.7^∗ %
His+ (revertant colonies) [2, 26]: 103 ± 4
% reduction [3, 27]: 9.44%
His+ (revertant colonies) [3, 27]: 53 ± 3
% reduction [3, 28]: 11.11%
His+ (revertant colonies) [3, 28]: 52 ± 7
% reduction [3, 29]: 30.6%
His+ (revertant colonies) [3, 29]: 45 ± 4
% reduction ([3]; +S9, CPA (150 μM), atorvastatin 200 μM, listed as Atorvastatin): 30.56^∗ %
% reduction [3, 30]: 42.2%
His+ (revertant colonies) [3, 30]: 41 ± 8
% reduction ([3]; +S9, CPA (150 μM), atorvastatin 1000 μM, listed as Atorvastatin): 42.22^∗ %
% reduction [3, 31]: 45.65^∗ %
His+ (revertant colonies) [3, 31]: 50 ± 4
% reduction [3, 32]: 67.39^∗ %
His+ (revertant colonies) [3, 32]: 40 ± 5
% reduction [3, 33]: 86.95^∗ %
His+ (revertant colonies) [3, 33]: 31 ± 2
% reduction [3, 34]: 91.30^∗ %
His+ (revertant colonies) [3, 34]: 29 ± 3
